# Experimental data as given in US9458104B2 (priority 2012, dated 2016).
# Key:
# [1] = molecular target: T1, RORγ ligand binding domain (LBD) (Homo sapiens, UniProt P51449); assay: TR-FRET Activity Assay (ligand sensing assay, RORγ-LBD / coactivator peptide interaction); format: biochemical
# T1 construct: made in house; host or cells: E. coli BL-21 (BL3), vector pDEST15
# T1 sequence (P51449 269-508 limits assumed): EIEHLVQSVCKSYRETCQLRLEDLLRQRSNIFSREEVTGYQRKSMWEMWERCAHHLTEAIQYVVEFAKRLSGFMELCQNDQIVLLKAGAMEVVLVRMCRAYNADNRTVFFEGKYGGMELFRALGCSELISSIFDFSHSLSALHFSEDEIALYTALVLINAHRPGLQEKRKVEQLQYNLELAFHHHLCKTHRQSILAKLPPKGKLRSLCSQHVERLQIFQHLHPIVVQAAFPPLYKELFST
# Text: This method measures the ability of putative ligands to modulate the interaction between the purified bacterial expressed RORγ ligand binding domain (LBD) and synthetic N-terminally biotinylated peptides which are derived from nuclear receptor coactivator proteins such as but not limited to SRC1 (NcoA1), SRC2 (NcoA2, TIF2), SRC3 (NcoA3), PGC1α, PGC1β, CBP, GRIP1, TRAP220, RIP140.
# The ligand-binding domain (LBD) of RORγ was expressed as fusion protein with GST in […] cells using the vector pDEST15. Cells were lysed by lysozyme-treatment and sonication, and the fusion proteins purified over glutathione sepharose (Pharmacia) according to the manufacturers instructions. For screening of compounds for their influence on the RORγ-peptide interaction, the LANCE technology (Perkin Elmer) was applied. This method relies on the binding dependent energy transfer from a donor to an acceptor fluorophor attached to the binding partner of interest. For ease of handling and reduction of background from compound fluorescence LANCE technology makes use of generic fluorophore labels and time resolved detection assays were done in a final volume of 25 μL in a 384 well plate, in a Tris-based buffer system (20 mM Tris-HCl pH6.8; 60 mM KCl, 1 mM DTT; 5 mM MgCl2; 35 ng/μL BSA), containing 20-60 ng/well recombinantly expressed RORγ-LBD fused to GST, 200-600 nM N-terminally biotinylated peptide, 200 ng/well Streptavidin-xIAPC conjugate (Prozyme) and 6-10 ng/well Eu W1024-antiGST (Perkin Elmer). DMSO content of the samples was kept at 1%.
# After generation of the Tris-based buffer system, the potentially RORγ modulating ligands were diluted. […] The LANCE signal was detected by a Perkin Elmer EnVision™ Multilabel Counter. The results were visualized by plotting the ratio between the emitted light at 665 nm and 615 nm. […] Ligands that promote the complex formation induce a concentration-dependent increase in time-resolved fluorescent signal.
# To assess the antagonistic potential of the compounds, IC50 values were determined using a Ligand Sensing Assay based on Time-resolved Fluorescence Energy Transfer (TR-FRET) as described above. The normalised TR-FRET assay values, using the following equation: 1000*665 nm measurement value/615 nm measurement value, were transferred to the program GraphPad Prism to generate graphs and dose response curves using the following equation: […]
# This is identical to the “four parameter logistic equation”. The IC50 values are calculated using this equation. […] Is is understood that the data illustrated below may have reasonable variation depending on the specific conditions and procedures used by the person conducting the test.
# [2] = molecular target: T2, RORγ (UniProt P51449); format: cell-based; conditions: 293T cells, 16 h; for pIC50 (FF): firefly (FF) luciferase; for pIC50 (REN): renilla normalised (RENnorm) luciferase
# T2 construct: hRORg-LBD|aa259-518|NP_005051.2; hRORgt|aa1-497|NP_001001523 (RORg, t isoform, 497aa); mRORg-LBD|aa264-516|NP_035411
# T2 sequence (P51449 1-518): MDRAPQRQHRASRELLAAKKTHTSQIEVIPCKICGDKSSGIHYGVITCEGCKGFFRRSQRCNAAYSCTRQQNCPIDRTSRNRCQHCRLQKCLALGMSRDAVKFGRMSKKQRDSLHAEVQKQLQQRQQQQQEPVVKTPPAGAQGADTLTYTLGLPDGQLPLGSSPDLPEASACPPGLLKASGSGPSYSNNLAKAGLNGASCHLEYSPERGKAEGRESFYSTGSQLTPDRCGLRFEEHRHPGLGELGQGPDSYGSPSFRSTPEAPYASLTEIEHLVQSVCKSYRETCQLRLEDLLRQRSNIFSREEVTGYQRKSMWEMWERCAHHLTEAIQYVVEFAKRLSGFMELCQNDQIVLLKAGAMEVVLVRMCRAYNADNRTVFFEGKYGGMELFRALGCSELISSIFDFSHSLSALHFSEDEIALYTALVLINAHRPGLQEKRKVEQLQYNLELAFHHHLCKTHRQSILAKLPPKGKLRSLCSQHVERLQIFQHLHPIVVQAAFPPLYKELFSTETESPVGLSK
# Method: Determination of a ligand mediated Gal4 promoter driven transactivation to quantify ligand binding to RORγ was performed as follows: DNA encoding three different RORγ. protein fragments was cloned into vector pCMV-BD (Stratagene). Expression was under control of a CMV promoter and as fusion to the DNA-binding domain of the yeast protein GAL4. Other vectors used were pFR-Luc (Stratagene) as regulated reporter plasmid. pFR-Luc contains a synthetic promoter with five tandem repeats of the yeast GAL4 binding sites that control expression of the Photinus pyralis (American firefly) luciferase gene. In order to improve experimental accuracy the plasmid pRL-CMV was cotransfected. pRL-CMV contains the constitutive CMV promoter, controlling the expression of the Renilla reniformis luciferase.
# All Gal4 reporter gene assays were done in 293T cells (DSMZ (German Collection of Microorganisms and Cell Cultures), Braunschweig, Germany, ACC635) grown in Minimum Essential Medium (MEM) with Phenol Red. The medium is supplemented with 10% fetal bovine serum, 0.1 mM nonessential amino acids, 1 mM sodium pyruvate, 1% Glutamax and 100 units Penicilin/[…] per mL at 37° C. in 5% CO2.
# For the assay, […] were plated per well in 96 well plates in 100 μL per well, incubated over night at 37° C. in 5% CO2. The following day, medium was discarded and the cells were transiently transfected using 20 μL per well of a OptiMEM—PEI-based transfection-reagent (Sigma-Aldrich, 408727) including the three plasmids described above. About 4 h after addition of the transfection solution, fresh Minimal Essential Medium (MEM, same composition as used for plating cells, but without serum) was added. Then compound stocks, prediluted in MEM (same composition as used for plating cells) were added (final vehicle concentration not exceeding 0.1%).
# All experiments were done at least in triplicates.
# It is understood that the data illustrated below may have reasonable variation depending on the specific conditions and procedures used by the person conducting the test.
Structure (SMILES),IC50 [1] [µM],pIC50 (FF) [2],pIC50 (REN) [2]
Cn1c(C(=O)N[C@H]2CC[C@H](C(=O)O)CC2)cc(-c2cc(C(C)(C)C)cc(C3(C)CC3)c2)c1CC1CCCCC1 [8/11],1.26,7.3,7.4
Cn1c(C(=O)NC23CCC(C(=O)O)(CC2)C3)cc(-c2cc(C(C)(C)C)cc(C3(C)CC3)c2)c1CC1CCCCC1 [8/12],1,7.7,7.8
Cn1c(C(=O)NCC(C)(C)C(=O)O)cc(-c2cc(C(C)(C)C)cc(C3(C)CC3)c2)c1CC1CCCCC1 [8/13],2.51,7.4,7.6
Cn1c(C(=O)NC23CCC(C(=O)O)(CC2)CC3)cc(-c2cc(C(C)(C)C)cc(C3(C)CC3)c2)c1CC1CCCCC1 [8/14],2,7.4,7.6
Cn1c(C(=O)N2CC(C(C)(C)C(=O)O)C2)cc(-c2cc(C(C)(C)C)cc(C3(C)CC3)c2)c1CC1CCCCC1 [8/15],2,7.2,7.4
Cn1c(C(=O)N2CCC(C)(C(=O)O)CC2)cc(-c2cc(C(C)(C)C)cc(C3(C)CC3)c2)c1CC1CCCCC1 [8/16],1.58,7.5,7.6
C[C@H](NC(=O)c1cc(-c2cc(C(=O)N[C@H]3C[C@H](C(=O)O)C3)n(C)c2CC2CCCCC2)cc(C2(C)CC2)c1)C(F)(F)F [8/17],1,7.7,7.9
Cn1c(C(=O)N[C@H]2C[C@H](C(=O)O)C2)cc(-c2cc(C(C)(C)C)nc(C3(C)CC3)n2)c1CC1CCCCC1 [8/18],0.794,6.7,6.7
Cn1c(C(=O)N[C@H]2C[C@H](C(=O)O)C2)cc(-c2cc(C(C)(C)C)nc(C(C)(C)C)n2)c1CC1CCCCC1 [8/19],0.794,6.8,6.8
Cn1c(C(=O)NC2CCOCC2)cc(CC2CCCCC2)c1-c1cc(C(C)(C)C)cc(C2(C)CC2)c1 [19/2],0.501,6.9,6.9
CC(C)(C)c1cc(-c2cc(C(=O)NC3CCOCC3)nn2CC2CCCCC2)cc(C2(C)CC2)c1 [100/1],0.0794,7.3,7.4
CC(C)(C)NS(=O)(=O)c1ccc(-c2cc(C(=O)NC3CCOCC3)nn2CC2CCCCC2)cc1C(C)(C)C [100/2],0.794,7.3,7.4
CC(C)(C)NS(=O)(=O)c1ccc(-c2cc(C(=O)N[C@H]3C[C@H](C(=O)O)C3)nn2CC2CCCCC2)cc1C(C)(C)C [100/3],0.794,7.0,7.1
CC(C)(C)NS(=O)(=O)c1ccc(-c2cc(C(=O)NCCC(C)(C)C(=O)O)nn2CC2CCCCC2)cc1C(C)(C)C [100/4],2,6.6,6.7
CC(C)(C)NS(=O)(=O)c1ccc(-c2cc(C(=O)NC3CCOCC3)nn2CC2CCCCC2)cc1C(F)(F)F [100/5],0.501,7.1,7.2
CC(C)(C)NS(=O)(=O)c1ccc(-c2cc(C(=O)N[C@H]3C[C@H](C(=O)O)C3)nn2CC2CCCCC2)cc1C(F)(F)F [100/6],0.316,6.3,6.3
CC(C)(C)NS(=O)(=O)c1ccc(-c2cc(C(=O)NCCC(C)(C)C(=O)O)nn2CC2CCCCC2)cc1C(F)(F)F [100/7],1.26,6.2,6.3
CC(C)NC(=O)c1cc(CC2CCCCC2)n(-c2cc(C(C)(C)C)cc(C(C)(C)C)c2)n1 [102/2],0.631,< 4.7,< 4.7
Cc1cc(-n2nc(C(=O)NC3CC3)cc2CC2CCCCC2)cc(C(C)(C)C)c1 [102/3],3.16,5.7,6.1
CC(C)(C)c1cc(-n2nc(C(=O)NC3CCOCC3)c(Cl)c2CC2CCCCC2)cc(C(C)(C)C)c1 [103/2],0.316,6.3,6.4
